Results: ChEMBL document CHEMBL1145418, “Cerebrosides and tocopherol trimers from the seeds of Euryale ferox” (J Nat Prod, 2007)

Assays:
[1] = (§1) Toxicity against brine shrimp after 24 hr by brine shrimp lethality test; assay type: organism-based; settings: artemia, in vivo
Artemia = test: as §1; assay type: organism-based; settings: in vivo, 24 h

Row | Structure (SMILES) | LC50 at 24 h [1] [µM] | Activity (Artemia)
1 | CCCCCCC/C=C/CC/C=C/[C@@H](O)[C@H](CO[C@@H]1O[C@H](CO)[C@@H](O)[C@H](O)[C@H]1O)NC(=O)[C@H](O)CCCCCCCCCCCCCCCCCCCC | 170 | –
2 | CCCCCCC/C=C/CC/C=C/[C@@H](O)[C@H](CO[C@@H]1O[C@H](CO)[C@@H](O)[C@H](O)[C@H]1O)NC(=O)[C@H](O)CCCCCCCCCCCCCCCCCCCCCC | 200 | –
3 | CC1=C(C)[C@@]23Oc4c(C)c(C)c5c(c4C[C@@]2(CC[C@@](C)(CCCC(C)CCCC(C)CCCC(C)C)O3)C2(Cc3c4c(c(C)c(C)c3O2)O[C@](C)(CCCC(C)CCCC(C)CCCC(C)C)CC4)C1=O)CC[C@@](C)(CCCC(C)CCCC(C)CCCC(C)C)O5 (stereo partly specified) [FEROTOCOTRIMER C] | – | Non-toxic
4 | CC1=C(C)[C@]23Oc4c(C)c(C)c5c(c4C[C@]2(CC[C@@](C)(CCCC(C)CCCC(C)CCCC(C)C)O3)C2(Cc3c4c(c(C)c(C)c3O2)O[C@](C)(CCCC(C)CCCC(C)CCCC(C)C)CC4)C1=O)CC[C@@](C)(CCCC(C)CCCC(C)CCCC(C)C)O5 (stereo partly specified) [FEROTOCOTRIMER D] | – | Non-toxic
5 | CC1=C(C)[C@]23Oc4c(C)c(C)c5c(c4C[C@]2(CC[C@@](C)(CCCC(C)CCCC(C)CCCC(C)C)O3)C2(CCc3c4c(c(C)c(C)c3O2)O[C@](C)(CCCC(C)CCCC(C)CCCC(C)C)CC4)C1=O)CC[C@@](C)(CCCC(C)CCCC(C)CCCC(C)C)O5 (stereo partly specified) [TOCOPHEROL TRIMER IVA] | – | Non-toxic
6 | CC1=C(C)[C@@]23Oc4c(C)c(C)c5c(c4C[C@@]2(CC[C@@](C)(CCCC(C)CCCC(C)CCCC(C)C)O3)C2(CCc3c4c(c(C)c(C)c3O2)O[C@](C)(CCCC(C)CCCC(C)CCCC(C)C)CC4)C1=O)CC[C@@](C)(CCCC(C)CCCC(C)CCCC(C)C)O5 (stereo partly specified) [TOCOPHEROL TRIMER IVB] | – | Non-toxic
